Assay results taken from patent EP0426574A1, “Thiazole derivatives and antiulcer agents containing the same” (TERUMO KABUSHIKI KAISHA, priority 1989, dated 1991).
Where a name gives a salt, the structure may show the parent alone.

Tested on: ethanol hydrochloric acid ulcer
Assay: Inhibitory activity against ethanol hydrochloric acid ulcer
Assay type: in vivo
Conditions: SD male rats fasted 24 hours; 30mg/kg orally, one hour before 150 mM hydrochloric acid in 60% ethanol; ulcer index = total lesion length, one hour later
Description: To SD male rats (weighing 150-250 g) fasted for 24 hours was administered orally a thiazole derivative of the invention. One hour later, a hydrochloric acid solution in ethanol (containing 150 mM hydrochloric acid in 60% ethanol) was orally given in a volume of 0.5 ml/100 g bodyweight.
One hour later, the animals were sacrificed with ether. The stomach was excised and, after formalin treatment, measured for the length (mm) of lesions developed in glandular portions of the stomach. Total length of the lesions per animal was taken as ulcer index.
Percent inhibition of ulceration as referred to in the table is a value obtained by reducing from 1 the ulcer index for the rat with a thiazole derivative of the invention orally given divided by the ulcer index for the orally non-administered rat and multiplying the value by 100. The calculation is conducted by the formula shown below. [formula]

SMILES | Percent inhibition of ulceration (%)
CNc1nc2cccnc2s1 [Example 1, 2-methylamino[5,4-b]pyridothiazole hydrochloride] | 100.0%
c1ccc(Nc2nc3cccnc3s2)cc1 [Example 2, 2-phenylamino[5,4-b]pyridothiazole hydrochloride] | 88.8%
c1ccc(CNc2nc3cccnc3s2)cc1 [Example 3, 2-benzylamino[5,4-b]pyridothiazole hydrochloride] | 87.2%
CN(C)c1ccc(Nc2nc3cccnc3s2)cc1 [Example 4, 2-(4-dimethylaminophenyl)amino[5,4-b]pyridothiazole hydrochloride] | 45.5%
COc1ccc(Nc2nc3cccnc3s2)cc1 [Example 5, 2-(4-methoxyphenyl)-amino[5,4-b]pyridothiazole hydrochloride] | 51.2%
